Literature values as cited in patent US20040259844A1 (priority 2000, published 2004).

System: retinal ganglion cells

## CN1[C@@H]2CC[C@H]1C[C@@H](OC(=O)C(CO)c1ccccc1)C2 (stereo partly shown) [atropine]
  effect on veratridine-increased survival of retinal ganglion cells: blocked
